Reference: patent US20260130395A1, “Water Dispersible Botanical Compositions” (Aquila Black Limited, priority 2021, published 2026)

What was measured:
[1] = Stability of cannabinoid entourage and Vitamin E components of the powder concentrate by LCMSMS; assay type: physicochemical; conditions: powder stored at 21-25° C.
Experimental: At each time period, 0.05 g of powder was dissolved in 10 ml-15 of ethanol, diluted to fall within the analytical range, and injected into the LCMSMS for analysis.

[2] = Stability of cannabinoid compounds and Vitamin E components in Beverage 1 (AB White) by LCMSMS; assay type: physicochemical

## CC(=O)Oc1c(C)c(C)c2c(c1C)CCC(C)(CCC[C@H](C)CCC[C@H](C)CCCC(C)C)O2 (stereo partly drawn) [α-Tocopheryl acetate]
[1]; 0 days
  Stability of Vitamin Es in Powder Concentrate: 2.15 mg/g powder
[1]; 1 days
  Stability of Vitamin Es in Powder Concentrate: 2.19 mg/g powder
[1]; 2 days
  Stability of Vitamin Es in Powder Concentrate: 2.11 mg/g powder
[1]; 3 days
  Stability of Vitamin Es in Powder Concentrate: 2.18 mg/g powder
[1]; 5 days
  Stability of Vitamin Es in Powder Concentrate: 2.24 mg/g powder
[1]; 8 days
  Stability of Vitamin Es in Powder Concentrate: 2.23 mg/g powder
[1]; 9 days
  Stability of Vitamin Es in Powder Concentrate: 2.09 mg/g powder
[1]; 10 days
  Stability of Vitamin Es in Powder Concentrate: 2.09 mg/g powder
[1]; 11 days
  Stability of Vitamin Es in Powder Concentrate: 2.20 mg/g powder
[1]; 12 days
  Stability of Vitamin Es in Powder Concentrate: 2.17 mg/g powder
[1]; 15 days
  Stability of Vitamin Es in Powder Concentrate: 2.24 mg/g powder
[1]; 16 days
  Stability of Vitamin Es in Powder Concentrate: 2.15 mg/g powder
[1]; 17 days
  Stability of Vitamin Es in Powder Concentrate: 2.13 mg/g powder
[1]; 18 days
  Stability of Vitamin Es in Powder Concentrate: 2.10 mg/g powder
[1]; 19 days
  Stability of Vitamin Es in Powder Concentrate: 2.21 mg/g powder
[1]; 22 days
  Stability of Vitamin Es in Powder Concentrate: 2.11 mg/g powder
[1]; 23 days
  Stability of Vitamin Es in Powder Concentrate: 2.16 mg/g powder
[1]; 24 days
  Stability of Vitamin Es in Powder Concentrate: 2.09 mg/g powder
[1]; 25 days
  Stability of Vitamin Es in Powder Concentrate: 2.24 mg/g powder
[1]; 26 days
  Stability of Vitamin Es in Powder Concentrate: 2.10 mg/g powder
[1]; 29 days
  Stability of Vitamin Es in Powder Concentrate: 2.21 mg/g powder
[1]; 30 days
  Stability of Vitamin Es in Powder Concentrate: 2.08 mg/g powder
[1]; 60 days
  Stability of Vitamin Es in Powder Concentrate: 2.15 mg/g powder
[1]; 90 days
  Stability of Vitamin Es in Powder Concentrate: 2.24 mg/g powder
[1]; 120 days
  Stability of Vitamin Es in Powder Concentrate: 2.17 mg/g powder
[1]; 150 days
  Stability of Vitamin Es in Powder Concentrate: 2.18 mg/g powder
[1]; 180 days
  Stability of Vitamin Es in Powder Concentrate: 2.20 mg/g powder
[1]; 210 days
  Stability of Vitamin Es in Powder Concentrate: 2.15 mg/g powder
[1]; 240 days
  Stability of Vitamin Es in Powder Concentrate: 2.23 mg/g powder
[1]; 270 days
  Stability of Vitamin Es in Powder Concentrate: 2.13 mg/g powder
[1]; 300 days
  Stability of Vitamin Es in Powder Concentrate: 2.09 mg/g powder
[1]; 330 days
  Stability of Vitamin Es in Powder Concentrate: 2.15 mg/g powder
[1]; 360 days
  Stability of Vitamin Es in Powder Concentrate: 2.12 mg/g powder
[1]; 390 days
  Stability of Vitamin Es in Powder Concentrate: 2.21 mg/g powder
[1]; 420 days
  Stability of Vitamin Es in Powder Concentrate: 2.21 mg/g powder
[1]; 450 days
  Stability of Vitamin Es in Powder Concentrate: 2.07 mg/g powder
[1]; 480 days
  Stability of Vitamin Es in Powder Concentrate: 2.10 mg/g powder
[1]; 510 days
  Stability of Vitamin Es in Powder Concentrate: 2.15 mg/g powder
[1]; 540 days
  Stability of Vitamin Es in Powder Concentrate: 2.21 mg/g powder
[1]; 570 days
  Stability of Vitamin Es in Powder Concentrate: 2.13 mg/g powder
[2]; stored at 8° C., 0 days
  Stability of Vitamin Es in AB White: 12.3 µg/mL
[2]; stored at 8° C., 1 days
  Stability of Vitamin Es in AB White: 12.04 µg/mL
[2]; stored at 8° C., 2 days
  Stability of Vitamin Es in AB White: 12.47 µg/mL
[2]; stored at 8° C., 3 days
  Stability of Vitamin Es in AB White: 11.99 µg/mL
[2]; stored at 8° C., 5 days
  Stability of Vitamin Es in AB White: 11.61 µg/mL
[2]; stored at 8° C., 8 days
  Stability of Vitamin Es in AB White: 12.48 µg/mL
[2]; stored at 8° C., 9 days
  Stability of Vitamin Es in AB White: 11.88 µg/mL
[2]; stored at 8° C., 10 days
  Stability of Vitamin Es in AB White: 12.13 µg/mL
[2]; stored at 8° C., 11 days
  Stability of Vitamin Es in AB White: 11.83 µg/mL
[2]; stored at 8° C., 12 days
  Stability of Vitamin Es in AB White: 12.31 µg/mL
[2]; stored at 8° C., 15 days
  Stability of Vitamin Es in AB White: 12.42 µg/mL
[2]; stored at 8° C., 16 days
  Stability of Vitamin Es in AB White: 11.35 µg/mL
[2]; stored at 8° C., 17 days
  Stability of Vitamin Es in AB White: 11.49 µg/mL
[2]; stored at 8° C., 18 days
  Stability of Vitamin Es in AB White: 11.83 µg/mL
[2]; stored at 8° C., 19 days
  Stability of Vitamin Es in AB White: 12.41 µg/mL
[2]; stored at 8° C., 22 days
  Stability of Vitamin Es in AB White: 11.27 µg/mL
[2]; stored at 8° C., 23 days
  Stability of Vitamin Es in AB White: 11.93 µg/mL
[2]; stored at 8° C., 24 days
  Stability of Vitamin Es in AB White: 12.02 µg/mL
[2]; stored at 8° C., 25 days
  Stability of Vitamin Es in AB White: 12.24 µg/mL
[2]; stored at 8° C., 26 days
  Stability of Vitamin Es in AB White: 12.03 µg/mL
[2]; stored at 8° C., 29 days
  Stability of Vitamin Es in AB White: 11.40 µg/mL
[2]; stored at 8° C., 30 days
  Stability of Vitamin Es in AB White: 12.07 µg/mL
[2]; stored at 8° C., 60 days
  Stability of Vitamin Es in AB White: 12.05 µg/mL
[2]; stored at 8° C., 90 days
  Stability of Vitamin Es in AB White: 11.13 µg/mL
[2]; stored at 8° C., 120 days
  Stability of Vitamin Es in AB White: 11.80 µg/mL
[2]; stored at 8° C., 150 days
  Stability of Vitamin Es in AB White: 11.89 µg/mL
[2]; stored at 8° C., 180 days
  Stability of Vitamin Es in AB White: 11.48 µg/mL
[2]; stored at 8° C., 210 days
  Stability of Vitamin Es in AB White: 11.21 µg/mL
[2]; stored at 8° C., 240 days
  Stability of Vitamin Es in AB White: 11.06 µg/mL
[2]; stored at 8° C., 270 days
  Stability of Vitamin Es in AB White: 11.21 µg/mL
[2]; stored at 8° C., 300 days
  Stability of Vitamin Es in AB White: 11.37 µg/mL
[2]; stored at 8° C., 330 days
  Stability of Vitamin Es in AB White: 11.28 µg/mL
[2]; stored at 8° C., 360 days
  Stability of Vitamin Es in AB White: 11.12 µg/mL
[2]; stored at 8° C., 390 days
  Stability of Vitamin Es in AB White: 11.00 µg/mL
[2]; stored at 8° C., 420 days
  Stability of Vitamin Es in AB White: 11.06 µg/mL
[2]; stored at 8° C., 450 days
  Stability of Vitamin Es in AB White: 10.89 µg/mL
[2]; stored at 8° C., 480 days
  Stability of Vitamin Es in AB White: 10.76 µg/mL
[2]; stored at 8° C., 510 days
  Stability of Vitamin Es in AB White: 10.76 µg/mL
[2]; stored at 8° C., 540 days
  Stability of Vitamin Es in AB White: 10.49 µg/mL
[2]; stored at 8° C., 570 days
  Stability of Vitamin Es in AB White: 10.42 µg/mL
[2]; stored at 21-25° C., 0 days
  Stability of Vitamin Es in AB White: 12.3 µg/mL
[2]; stored at 21-25° C., 1 days
  Stability of Vitamin Es in AB White: 12.2 µg/mL
[2]; stored at 21-25° C., 2 days
  Stability of Vitamin Es in AB White: 12.3 µg/mL
[2]; stored at 21-25° C., 3 days
  Stability of Vitamin Es in AB White: 11.8 µg/mL
[2]; stored at 21-25° C., 5 days
  Stability of Vitamin Es in AB White: 12.0 µg/mL
[2]; stored at 21-25° C., 8 days
  Stability of Vitamin Es in AB White: 12.4 µg/mL
[2]; stored at 21-25° C., 9 days
  Stability of Vitamin Es in AB White: 12.2 µg/mL
[2]; stored at 21-25° C., 10 days
  Stability of Vitamin Es in AB White: 11.8 µg/mL
[2]; stored at 21-25° C., 11 days
  Stability of Vitamin Es in AB White: 11.7 µg/mL
[2]; stored at 21-25° C., 12 days
  Stability of Vitamin Es in AB White: 11.6 µg/mL
[2]; stored at 21-25° C., 15 days
  Stability of Vitamin Es in AB White: 11.4 µg/mL
[2]; stored at 21-25° C., 16 days
  Stability of Vitamin Es in AB White: 12.3 µg/mL
[2]; stored at 21-25° C., 17 days
  Stability of Vitamin Es in AB White: 11.2 µg/mL
[2]; stored at 21-25° C., 18 days
  Stability of Vitamin Es in AB White: 11.9 µg/mL
[2]; stored at 21-25° C., 19 days
  Stability of Vitamin Es in AB White: 11.4 µg/mL
[2]; stored at 21-25° C., 22 days
  Stability of Vitamin Es in AB White: 11.3 µg/mL
[2]; stored at 21-25° C., 23 days
  Stability of Vitamin Es in AB White: 11.9 µg/mL
[2]; stored at 21-25° C., 24 days
  Stability of Vitamin Es in AB White: 11.8 µg/mL
[2]; stored at 21-25° C., 25 days
  Stability of Vitamin Es in AB White: 11.3 µg/mL
[2]; stored at 21-25° C., 26 days
  Stability of Vitamin Es in AB White: 11.6 µg/mL
[2]; stored at 21-25° C., 29 days
  Stability of Vitamin Es in AB White: 12.1 µg/mL
[2]; stored at 21-25° C., 30 days
  Stability of Vitamin Es in AB White: 12.1 µg/mL
[2]; stored at 21-25° C., 60 days
  Stability of Vitamin Es in AB White: 12.1 µg/mL
[2]; stored at 21-25° C., 90 days
  Stability of Vitamin Es in AB White: 12.0 µg/mL
[2]; stored at 21-25° C., 120 days
  Stability of Vitamin Es in AB White: 11.4 µg/mL
[2]; stored at 21-25° C., 150 days
  Stability of Vitamin Es in AB White: 11.9 µg/mL
[2]; stored at 21-25° C., 180 days
  Stability of Vitamin Es in AB White: 11.2 µg/mL
[2]; stored at 21-25° C., 210 days
  Stability of Vitamin Es in AB White: 11.1 µg/mL
[2]; stored at 21-25° C., 240 days
  Stability of Vitamin Es in AB White: 10.8 µg/mL
[2]; stored at 21-25° C., 270 days
  Stability of Vitamin Es in AB White: 11.0 µg/mL
[2]; stored at 21-25° C., 300 days
  Stability of Vitamin Es in AB White: 11.2 µg/mL
[2]; stored at 21-25° C., 330 days
  Stability of Vitamin Es in AB White: 11.3 µg/mL
[2]; stored at 21-25° C., 360 days
  Stability of Vitamin Es in AB White: 10.7 µg/mL
[2]; stored at 21-25° C., 390 days
  Stability of Vitamin Es in AB White: 10.8 µg/mL
[2]; stored at 21-25° C., 420 days
  Stability of Vitamin Es in AB White: 10.9 µg/mL
[2]; stored at 21-25° C., 450 days
  Stability of Vitamin Es in AB White: 10.6 µg/mL
[2]; stored at 21-25° C., 480 days
  Stability of Vitamin Es in AB White: 10.3 µg/mL
[2]; stored at 21-25° C., 510 days
  Stability of Vitamin Es in AB White: 10.4 µg/mL
[2]; stored at 21-25° C., 540 days
  Stability of Vitamin Es in AB White: 10.4 µg/mL
[2]; stored at 21-25° C., 570 days
  Stability of Vitamin Es in AB White: 10.2 µg/mL
